Tests used:
MITF protein = MITF protein by Western immunoblotting in SKMEL-5 cells; assay type: cell-based, human
Procedure: (§1) Experiments described in this example were performed using methods as described in Haq et al. (2013). Oncogenic BRAF regulates oxidative metabolism via PGC1α and MITF. Cancer Cell. 2013 Mar. 18; 23(3):302-15.
MITF protein was detected using Western immunoblotting. In parallel, SK-MEL-5 cells treated with ML329 (above) were lysed and MITF mRNA was quantified by qPCR (FIG. 12b).

non-melanoma cells = assay: Non-melanoma cell viability (CellTiter-Glo, 48-72 hours); assay type: cell-based
Procedure: as §1
(§2) Indicated cell line was treated with varying concentrations of ML329 for 48-72 hours. Viability was measured using the CellTiter-Glo reagent (Promega).

[1] = system: human melanoma cell lines; assay: Cell viability of human melanoma cell lines (CellTiter-Glo, 48-72 hours); assay type: cell-based
Procedure: as §1, §2

[2] = system: MITF and MITF target genes; assay: qPCR of MITF and MITF target genes in human melanoma cell lines and primary melanocytes; assay type: cell-based; settings: 24 h, multiple cell lines
Procedure: as §1
Effect of ML329 (24 h at indicated concentration) on MITF mRNA and target gene mRNA expression in melanoma cell lines. mRNA was quantified by qPCR.

CDK2 = assay: qPCR assay for CDK2 expression in SK-MEL-5 cells; assay type: cell-based, human; settings: qPCR
Procedure: SK-MEL-5 cells were treated with compounds for 24 hours. Next, cells were lysed with DNase I (Ambion, from Cell to CT Lysis Mix). Lysed cells were delivered to a RT-PCR plate (Ambion, Cells to CT RT Mix) and the plates were then processed for reverse transcription to create cDNA. qPCR was performed by transferring cDNA from the RT-PCR plate to a qPCR plate containing PCR master mix (Roche, Probes Master), FAM Taqman probe/primer set for the target gene (human MITF, Applied Biosystem, 4331182 Hs01117294_m1), VIC Taqman probe/primer set for a house keeping gene (human GAPDH, Applied Biosystems C10228) and water. qPCR plates were cycled using a real-time PCR instrument (Roche, Light Cycler). Using the instrument software, a cycle call was generated when each well enters log phase amplification (Ct). The delta Ct value was determined by subtracting the Ct value of the control gene (GAPDH) from the Ct value of the target gene (MITF) in each well. The delta delta Ct value of each compound treatment was determined by averaging the delta Ct values of the mock well on each plate and subtracting that average from the delta Ct value of each compound well. […]
• 10. […] The RT assay plates are incubated at 37° C. for 1 hour and the reverse transcriptase is inactivated by incubating the plates for 1 minute at 95° C. • 13. cDNA is stored at −80° C. until ready for qPCR analysis […]

MALME-3M cells = assay: MALME-3M cell cytotoxicity assay (CellTiter-Glo); assay type: cell-based, human; settings: FIG. 13
Procedure: (§3) MALME-3M cells were treated with compounds for 24 hours, and then cell viability was measured using the CellTiter-Glo Assay (Promega), a luciferase-based reagent that measures cellular ATP levels. The compounds were tested at different concentrations to determine IC50 values. Compounds that were active in the primary assay and toxic below 30 μM at 24 hours were considered for probe development. Data were normalized against DMSO in Genedata Screener's Assay Analyzer.
(§4) MALME-3M cells were maintained in IMDM (20% FBS, 1% Pen-Strep-Glutamine). Cells were fluid changed every 3 days and/or split upon reaching 100% confluency. For secondary assays, cells were thawed at 6 million cells per Falcon T175 flask. After 3 days, cells were fluid changed, after 3 more days cells were passed to a Corning Triple flask (15-18 million cells) and plated after 3 days in the triple flask.
Day 1 • 1. Plate MALME-3M cells at 3,000 per well in 30 uL media (phenol red free IMDM/10% Fetal Bovine Serum/Penicillin/Streptomycin/L-Glutamine) • 2. Use Corning white 384-well, square, opaque-bottomed plates (Corning Catalog No. 8867BC)
Day 2 • 3. Pin 100 nL compound/DMSO solution (Cybi Well) into assay plates, including the positive control. • 4. Incubate 24 hours at 37° C. in Liconic incubator.
(§5) Day 3 • 5. […] Read on the Perkin-Elmer EnVision plate reader with luminescence (LUM) settings for 0.1 sec per well. […]

SK-MEL-5 cells = assay: SK-MEL-5 cell cytotoxicity assay (CellTiter-Glo); assay type: cell-based, human; settings: FIG. 13
Procedure: as §3, with “SK-MEL-5” for “MALME-3M”
as §4, with “SK-MEL-5” for “MALME-3M”, “DMEM (10%” for “IMDM (20%”, “4” for “6”, “days, the” for “days,”, “(10-15” for “(15-18”
Day 1 • 1. Plate SK-MEL-5 cells at 3,000 per well in 30 uL media (phenol red free DMEM/10% Fetal Bovine Serum/Penicillin/Streptomycin/L-Glutamine) • 2. Use Corning white 384-well, square, opaque-bottomed plates (Corning Catalog No. 8867BC)
Day 2 • 3. Pin 100 nL compound/DMSO solution (Cybi Well) into assay plates. (For HTS, required sentinel pinning with the positive control, parthenolide (6 mM)) • 4. […]
as §5

A375 cells = assay: A-375 cell cytotoxicity assay (CellTiter-Glo); assay type: cell-based, human; settings: FIG. 13
Procedure: as §3, with “A375 cells were” for “MALME-3M cells were”, “assay and were not toxic below” for “assay and toxic below”
as §4, with “A-375” for “MALME-3M”, “DMEM (10%” for “IMDM (20%”, “90%” for “100%”, “2” for “6”, “were” for “were fluid changed, after 3 more days cells were”, “(6-8” for “(15-18”
Day 1 • 1. Plate A-375 cells at 3,000 per well in 30 uL media (phenol red free DMEM/10% Fetal Bovine Serum/Penicillin/Streptomycin/L-Glutamine) • 2. Use Corning white 384-well, square, opaque-bottomed plates (Corning Catalog No. 8867BC)
Day 2 • 3. Pin 100 nL compound/DMSO solution (Cybi Well) into assay plates. (For HTS, required sentinel pinning with the positive control, parthenolide (6 mM)) • 4. Incubate 24 hours at 37° C. in Liconic incubator.
as §5

Q: `NS(=O)(=O)c1ccc(NC2=CC(=O)c3ccccc3C2=O)cc1` [ML329, 4-((1,4-dioxo-1,4-dihydronaphthalen-2-yl)amino)benzenesulfonamide] was tested. Which “Effect on MITF protein” value (MITF protein) did it give?
A: suppresses MITF protein

Q: And the “Cytotoxicity in non-melanoma cells or melanoma cells lacking MITF” value (non-melanoma cells)?
A: not cytotoxic

Q: What about the “Sensitivity of melanoma cell lines (cell viability)” value (“Sensitivity of melanoma cell lines” for short) ([1]; A375, SKMEL2, IPC298 and SK30) of the same compound?
A: less sensitive

Q: And the “Cytotoxicity in a large number of melanoma cells” value ([1]; CellTiter-Glo, incl. vemurafenib-resistant lines)?
A: variably cytotoxic

Q: And the “Sensitivity of melanoma cell lines” value ([1]; SKMEL5, IST MEL, MALME-3M and 501 MEL)?
A: very sensitive

Q: And the “Sensitivity of melanoma cell lines” value ([1]; UACC257, C32, COLO800 and MZ2MEL)?
A: sensitive

Q: What about the “Effect on MITF mRNA and target gene mRNA expression” value [2] of the same compound?
A: suppresses MITF and its transcriptional activity

Q: Which “CDK2 expression, result in words” value (CDK2) does the source give for `Cc1nc2ccccc2n1/N=C/c1ccc([N+](=O)[O-])s1` here?
A: reduced the expression

Q: And the “Cell viability, MALME-3M (MITF-dependent), result in words” value (MALME-3M cells)?
A: specific activity against the MITF-dependent cells

Q: And the “Cell viability, SK-MEL-5 (MITF-dependent), result in words” value (SK-MEL-5 cells)?
A: specific activity against the MITF-dependent cells

Q: And the “Cell viability, A-375 (MITF-independent), result in words” value (A375 cells)?
A: no impairment of viability

From US9745261B2, “Inhibitors of the MITF molecular pathway” (THE GENERAL HOSPITAL CORPORATION, priority 2013, dated 2017)
